# Where a name gives a salt, the structure may show the parent alone.
# Assays:
# [1] = tested on: Dextran-induced edema formation in the ears of mice; assay: Inhibition of Dextran-induced edema formation in the ears of mice; format: in vivo, male Swiss mice; conditions: Column B, at 10 mg/kg body weight, 1 h before dextran; for inhibition in vivo at 10 mg/kg: Mus musculus, po, read-out: inhibition of Dextran-induced blueing of the ears of mice, % inhibition; for inhibition of Dextran-induced blueing of the ears of mice, % inhibition: oral
# Description: Inhibition of Dextran-induced edema formation in the ears of mice.
# Intravenous injection of Dextran T500® (Pharmacia) and pontamine sky-blue dye into mice results in increased vascular permeability and edema formation, characterized by an intense blueing of the ears. Determination of the amount of extravasated dye is presumed to yield a quantitative measure of the 5-lipoxygenase inhibiting activity of the test compounds (Drug. Dev. Res. 8, 213-218, 1986). Unfasted male Swiss mice weighing 24-26 g were used in the experiments which were performed between 13.00 pm and 17.00 pm at an ambient temperature of 22±1° C. The mice were treated orally with a test compound of formula (I) dissolved in a volume of […] of either polyethyleneglycol (PEG 200) or hydroxypropyl cyclodextrine at doses varying between 1.25 and 40 mg per kg bodyweight. In control experiments the mice were administered an identical amount of solvent alone. One hour after treatment there was injected intravenously an isotonic saline solution containing 60 mg/ml Dextran T500® and 13 mg/ml pontamine sky-blue dye in a volume of 0.1 ml per 10 g bodyweight. One hour and forty-five minutes later the animals were sacrificed by ether and their ears were removed. Extraction and quantification of the extravasated dye were performed as described (Drug Dev. Res. 8, 213-218, 1986). The calculated percentage of inhibition of ear blueing upon administration of a compound of formula (I) at a dose of 10 mg/kg bodyweight is shown in the second column of table 12.
# 5-lipoxygenase = target: T1, 5-lipoxygenase (Rattus norvegicus, UniProt P12527); assay: Arachidonate 5-lipoxygenase inhibition in Rat Basophilic Leukemia Cells Supernatant; format: biochemical; parameters: dose or concentration left out as unconfirmed; conditions: Column A, 5-HPETE and LTB4 formation; for inhibition: read-out: 5-lipoxygenase inhibition in RBL cells supernatant, % inhibition
# T1 construct: The supernatant, aliquoted and stored at -70° C., was used as the source of 5-lipoxygenase activity; endogenous in cells; host or cells: Rat basophilic leukemia (RBL) cells, 10,000×g supernatant of the sonicate (crude, not purified)
# T1 sequence (P12527 1-673): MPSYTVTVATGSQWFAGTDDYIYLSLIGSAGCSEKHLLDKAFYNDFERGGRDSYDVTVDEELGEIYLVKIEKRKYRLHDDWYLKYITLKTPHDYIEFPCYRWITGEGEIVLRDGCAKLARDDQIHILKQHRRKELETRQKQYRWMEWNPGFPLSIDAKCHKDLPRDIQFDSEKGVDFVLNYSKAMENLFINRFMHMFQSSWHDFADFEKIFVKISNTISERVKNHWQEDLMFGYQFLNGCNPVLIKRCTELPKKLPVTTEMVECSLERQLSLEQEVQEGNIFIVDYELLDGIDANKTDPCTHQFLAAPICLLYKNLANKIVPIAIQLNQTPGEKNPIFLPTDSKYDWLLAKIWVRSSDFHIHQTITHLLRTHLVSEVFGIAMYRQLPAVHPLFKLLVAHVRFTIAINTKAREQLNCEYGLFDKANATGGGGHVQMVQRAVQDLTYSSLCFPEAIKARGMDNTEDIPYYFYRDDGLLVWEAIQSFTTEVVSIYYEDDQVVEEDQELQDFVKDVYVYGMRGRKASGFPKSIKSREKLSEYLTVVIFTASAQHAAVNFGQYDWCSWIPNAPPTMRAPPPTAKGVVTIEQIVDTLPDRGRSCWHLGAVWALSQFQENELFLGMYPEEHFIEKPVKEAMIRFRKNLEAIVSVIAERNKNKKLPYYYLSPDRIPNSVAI
Compound,inhibition in vivo at 10 mg/kg [1],inhibition (5-lipoxygenase),further results
Cc1nn(CC(C)C)c(=O)n1-c1ccc(N2CCN(c3ccc(O)cc3)CC2)cc1 [Compound 7.34],66%,87%,
"CCC(C)n1nc(C)n(-c2ccc(N3CCN(c4cc(C)c(O)c(C)c4)CC3)cc2)c1=O (stereo not shown) [Compound 7.50, 2,4-dihydro-4-[4-[4-(4-hydroxy-3,5-dimethylphenyl)-1-piperazinyl]phenyl]-5-methyl-2-(1-methylpropyl)-3H-1,2,4-triazol-3-one]",88%,52%,
"CCCCn1c(=O)cnn(-c2ccc(N3CCN(c4ccc(O)cc4)CC3)cc2)c1=O [Compound 10.05, 4-butyl-2-[4-[4-(4-hydroxyphenyl)-1-piperazinyl]phenyl]-1,2,4-triazine-3,5(2H,4H)-dione]",,80%,
CC(C(O)c1ccc(Br)cc1)n1ncn(-c2ccc(N3CCN(c4ccc(O)cc4)CC3)cc2)c1=O (stereo not shown) [Compound 7.35],79%,100%,
CCC(C)N1C(=O)N(c2ccc(N3CCN(c4ccc(O)cc4)CC3)cc2)C(C)(C)C1=O (stereo not shown) [Compound 6.12],53%,90%,
CCC(C(O)c1ccccc1)n1ncn(-c2ccc(N3CCN(c4ccc(O)cc4)CC3)cc2)c1=O (stereo not shown) [Compound 7.69],85%,,
"Cc1nn(C(C)C(=O)c2ccc(Br)cc2)c(=O)n1-c1ccc(N2CCN(c3ccc(O)cc3)CC2)cc1 (stereo not shown) [Compound 7.57, 2-[2-(4-bromophenyl)-1-methyl-2-oxoethyl]-2,4-dihydro-4-[4-[4-(4-hydroxyphenyl)-1-piperazinyl]phenyl]-5-methyl-3H-1,2,4-triazol-3-one]",82%,90%,
"Cc1cc(N2CCN(c3ccc(-n4c(C)nn(C(C)C(=O)c5ccc(Br)cc5)c4=O)cc3)CC2)cc(C)c1O (stereo not shown) [Compound 7.51, 2-[2-(4-bromophenyl)-1-methyl-2-oxoethyl]-2,4-dihydro-4-[4-[4-(4-hydroxy-3,5-dimethylphenyl)-1-piperazinyl]phenyl]-5-methyl-3H-1,2,4-triazol-3-one]",83%,93%,
"Cc1cc(N2CCN(c3ccc(-n4c(C)nn(C(C)C(O)c5ccc(Br)cc5)c4=O)cc3)CC2)cc(C)c1O (stereo not shown) [Compound 7.54, 2-[2-(4-bromophenyl)-2-hydroxy-1-methylethyl]-2,4-dihydro-4-[4-[4-(4-hydroxy-3,5-dimethylphenyl)-1-piperazinyl]phenyl]-5-methyl-3H-1,2,4-triazol-3-one]",76%,79%,
CCC(C(=O)c1ccc(Br)cc1)n1ncn(-c2ccc(N3CCN(c4ccc(O)cc4)CC3)cc2)c1=O (stereo not shown) [Compound 7.36],93%,100%,
CCCCN1C(=O)N(c2ccc(N3CCN(c4ccc(O)cc4)CC3)cc2)C(C)(C)C1=O [Compound 6.10],93%,90%,
"CCC(C)n1nc(C)n(-c2ccc(N3CCN(c4ccc(O)cc4)CC3)cc2)c1=O (stereo not shown) [Compound 7.33, 2,4-dihydro-4-[4-[4-(4-hydroxyphenyl)-1-piperazinyl]phenyl]-5-methyl-2-(1-methylpropyl)-3H-1,2,4-triazol-3-one]",87%,80%,
CN1C(=S)N(c2ccc(N3CCN(c4ccc(O)cc4)CC3)cc2)C(=O)C1(C)C [Compound 5.12],88%,81%,
CC(C(O)c1ccc(Cl)cc1Cl)n1ncn(-c2ccc(N3CCN(c4ccc(O)cc4)CC3)cc2)c1=O (stereo not shown) [Compound 7.23],,,"inhibition of Dextran-induced blueing of the ears of mice, % inhibition [1]: 94%; 5-lipoxygenase inhibition in RBL cells supernatant, % inhibition (5-lipoxygenase): 91%"
"Cc1nn(C(C)C(O)c2ccc(Br)cc2)c(=O)n1-c1ccc(N2CCN(c3ccc(O)cc3)CC2)cc1 (stereo not shown) [Compound 7.70, 2-[2-(4-bromophenyl)-2-hydroxy-1-methylethyl]-2,4-dihydro-4-[4-[4-(4-hydroxyphenyl)-1-piperazinyl]phenyl]-5-methyl-3H-1,2,4-triazol-3-one]",85%,,
CC(C(O)c1ccc(Br)cc1)n1ncn(-c2ccc(N3CCN(c4ccc(O)cc4)CC3)cc2)c1=O (stereo not shown) [Compound 7.68],,,"inhibition of Dextran-induced blueing of the ears of mice, % inhibition ([1]; 10 mg/kg): 81%"
CCCN1C(=O)N(c2ccc(N3CCN(c4ccc(O)cc4)CC3)cc2)C(C)(C)C1=O [Compound 6.08],89%,75%,
CC(C(=O)c1ccc(F)cc1)n1ncn(-c2ccc(N3CCN(c4ccc(O)cc4)CC3)cc2)c1=O (stereo not shown) [Compound 7.14],70%,66%,
CCCn1cnn(-c2ccc(N3CCN(c4ccc(O)cc4)CC3)cc2)c1=O [Compound 8.05],,90%,

Compound,inhibition in vivo at 10 mg/kg [1],inhibition (5-lipoxygenase),further results
CCN(C1=NC(C(C)C)CS1)c1ccc(N2CCN(c3ccc(O)cc3)CC2)cc1 (stereo not shown) [Compound 3.14],74%,,
O=C1CCCCC1n1ncn(-c2ccc(N3CCN(c4ccc(O)cc4)CC3)cc2)c1=O (stereo not shown) [Compound 7.18],87%,67%,
CC12CCCN1C(=O)N(c1ccc(N3CCN(c4ccc(O)cc4)CC3)cc1)C2=O (stereo not shown) [Compound 5.10],75%,69%,
CCC(C)n1nc(C)n(-c2ccc(N3CCN(c4ccc(O)c(C)c4)CC3)cc2)c1=O (stereo not shown) [Compound 7.38],88%,100%,
Cn1c(=O)n(C)c(=O)n(-c2ccc(N3CCN(c4ccc(O)cc4)CC3)cc2)c1=O [Compound 9.05],83%,,
CCCn1c(=O)n(-c2ccc(N3CCN(c4ccc(O)cc4)CC3)cc2)c(=O)n(C(C)C(=O)c2ccc(Br)cc2)c1=O (stereo not shown) [Compound 9.07],83%,,
O=c1n(-c2ccc(N3CCN(c4ccc(O)cc4)CC3)cc2)cnn1CC(F)(F)F [Compound 7.11],81%,81%,
CC(=O)C(C)N1C(=O)N(c2ccc(N3CCN(c4ccc(O)cc4)CC3)cc2)C(=O)C1(C)C (stereo not shown) [Compound 5.08],76%,45%,
CCN1CCN(c2ccc(N3CCN(c4ccc(O)cc4)CC3)cc2)C1=O [Compound 4.02],,84%,
CC(C)N1C(=O)N(c2ccc(N3CCN(c4ccc(O)cc4)CC3)cc2)C(C)(C)C1=O [Compound 6.09],,84%,
"O=[N+]([O-])c1cc(F)ccc1N1CCN(c2ccc(O)cc2)CC1 [Compound 1.16, 4-[4-(4-fluoro-2-nitrophenyl)-1-piperazinyl]phenol monohydrochloride]",,94%,
CC(C(O)c1ccc(Cl)cc1Cl)n1ncn(-c2ccc(N3CCN(c4ccc(O)cc4)CC3)cc2)c1=O (stereo not shown) [Compound 7.22],94%,100%,
CCN1C(=S)N(c2ccc(N3CCN(c4ccc(O)cc4)CC3)cc2)C(=O)C1(C)C [Compound 5.13],15%,71%,
CCCCN1C(=O)N(c2ccc(N3CCN(c4ccc(O)cc4)CC3)cc2)CC1(C)C [Compound 4.13],,95%,
CCCCN1C(=O)N(c2ccc(N3CCN(c4ccc(O)cc4)CC3)cc2)C(=O)C1C (stereo not shown) [Compound 5.03],72%,79%,
CCCn1c(=O)n(CCC)c(=O)n(-c2ccc(N3CCN(c4ccc(O)cc4)CC3)cc2)c1=O [Compound 9.03],94%,58%,
CCC(C(=O)c1ccc(Cl)cc1)n1ncn(-c2ccc(N3CCN(c4ccc(O)cc4)CC3)cc2)c1=O (stereo not shown) [Compound 7.41],82%,,
CCC(C)n1ncn(-c2ccc(N3CCN(c4ccc(O)cc4)CC3)c(Br)c2)c1=O (stereo not shown) [Compound 7.21],,97%,
CCC(C)n1ncn(-c2ccc(N3CCN(c4ccc(O)cc4)CC3)cc2)c1=O (stereo not shown) [Compound 7.06],,97%,
